Measurements: PMC5687316 (Acta Pharmaceutica Sinica. B, 2017)
Counter-ions that a name gives are not always drawn.

How the values were obtained:
[1] = Nonspecific binding to HLMs; type: in vitro ADME, human; conditions: HLMs 0.2 mg/mL
UGT1A1 in HLMs = target: T1, UGT1A1 in HLMs (Homo sapiens, UniProt P22309); type: biochemical; conditions: for Inhibition type: HLM, Lineweaver-Burk and Dixon plots; for time dependence of UGT1A1 inhibition: data not shown; for phase II metabolites of the inhibitor in the incubations: UGT1A1/HLM incubations with UDPGA
T1 sequence (P22309 26-533): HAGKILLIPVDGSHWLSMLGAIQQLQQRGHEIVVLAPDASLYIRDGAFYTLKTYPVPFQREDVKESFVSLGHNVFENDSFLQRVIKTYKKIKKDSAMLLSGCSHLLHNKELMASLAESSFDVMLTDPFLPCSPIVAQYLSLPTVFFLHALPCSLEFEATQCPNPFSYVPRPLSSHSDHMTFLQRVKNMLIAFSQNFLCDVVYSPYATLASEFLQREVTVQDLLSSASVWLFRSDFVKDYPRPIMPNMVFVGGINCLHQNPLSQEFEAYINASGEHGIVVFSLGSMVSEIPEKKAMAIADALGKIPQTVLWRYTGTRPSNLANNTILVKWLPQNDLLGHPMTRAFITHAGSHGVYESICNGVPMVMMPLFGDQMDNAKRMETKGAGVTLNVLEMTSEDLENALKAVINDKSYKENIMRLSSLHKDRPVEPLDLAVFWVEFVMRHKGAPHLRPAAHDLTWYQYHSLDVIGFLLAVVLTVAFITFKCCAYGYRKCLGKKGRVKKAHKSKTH

UGT1A1 = target: T2, UGT1A1 (Homo sapiens, UniProt P22309); assay: Inhibition of NCHN-4-O-glucuronidation in recombinant human UGT1A1; type: biochemical; conditions: for activity at 50 min, 10 µmol/L: human, recombinant human UGT1A1, pH 7.4, probe NCHN (NCHN-4-O-glucuronidation); for Inhibition type: recombinant human UGT1A1, Lineweaver-Burk and Dixon plots
T2 sequence (P22309 26-533): T1 sequence (P22309 26-533)

[2] = Maximum plasma concentration in humans after oral administration; conditions: human, calculated as Cmax × fu; icotinib 125 mg × 3 daily, erlotinib 150 mg

binding to HLMs [1]	Inhibition type (UGT1A1 in HLMs)	time dependence of UGT1A1 inhibition (UGT1A1 in HLMs; HLMs)	phase II metabolites of the inhibitor in the incubations (UGT1A1 in HLMs)	activity at 50 min, 10 µmol/L (UGT1A1) [%]	Inhibition type (UGT1A1)	Cmax,u [2] [µmol/L]	fraction unbound (Binding to human plasma)	Ki (UGT1A1 in HLMs) [µM]	fold difference in Ki between icotinib and erlotinib (UGT1A1 in HLMs; HLMs, NCHN-O-glucuronidation)	IC50 (UGT1A1 in HLMs; IC50, HLM 0.2 mg/mL, NCHN-4-O-glucuronidation) [µM]	Ki (UGT1A1) [µM]	IC50 (UGT1A1; IC50, recombinant human UGT1A1 0.06 mg/mL, NCHN-4-O-glucuronidation) [µM]	SMILES
negligible binding	Noncompetitive	not time-dependent	no phase II metabolites	19	Noncompetitive	0.55	0.09	–	–	–	–	–	C#Cc1cccc(Nc2ncnc3cc(OCCOC)c(OCCOC)cc23)c1 [Erlotinib]
negligible binding	Noncompetitive	not time-dependent	no phase II metabolites	36	Noncompetitive	0.53	0.11	8.55	about 7 fold	5.15 ± 0.28	10	8.76 ± 0.78	C#Cc1cccc(Nc2ncnc3cc4c(cc23)OCCOCCOCCO4)c1 [Icotinib, 4-[(3-ethynylphenyl)amino]-6,7-benzo-12-crown-4-quinazoline hydrochloride]
